Data as given in ChEMBL document CHEMBL1949655, “Neomycin-phenolic conjugates: polycationic amphiphiles with broad-spectrum antibacterial activity, low hemolytic activity and weak serum protein binding” (Bioorg Med Chem Lett, 2012).
Converted amounts (≈) assume the structure as drawn.

Tests used:
Staphylococcus aureus [1] = assay: microbe, parasite or virus in culture; type: functional; details: ATCC 29213, 24 h
Description: Antibacterial activity against Staphylococcus aureus ATCC 29213 after 24 hrs by macrobroth dilution method

Staphylococcus aureus [2] = assay: microbe, parasite or virus in culture; type: functional; details: ATCC 33592, 24 h
Description: Antibacterial activity against methicillin-resistant Staphylococcus aureus ATCC 33592 after 24 hrs by macrobroth dilution method

[3] = tested on: Staphylococcus epidermidis; assay: microbe, parasite or virus in culture; type: functional; details: Staphylococcus epidermidis, 81388, 24 h
Description: Antibacterial activity against methicillin-susceptible Staphylococcus epidermidis 81388 after 24 hrs by macrobroth dilution method

[4] = tested on: Staphylococcus epidermidis; assay: microbe, parasite or virus in culture; type: functional; details: isolate CAN-ICU61589, 24 h
Description: Antibacterial activity against methicillin-resistant Staphylococcus epidermidis isolate CAN-ICU 61589 after 24 hrs by macrobroth dilution method

Enterococcus faecalis [5] = assay: microbe, parasite or virus in culture; type: functional; details: ATCC 29212, 24 h
Description: Antibacterial activity against Enterococcus faecalis ATCC 29212 after 24 hrs by macrobroth dilution method

Enterococcus faecium [6] = assay: microbe, parasite or virus in culture; type: functional; details: ATCC 27270, 24 h
Description: Antibacterial activity against Enterococcus faecium ATCC 27270 after 24 hrs by macrobroth dilution method

Streptococcus pneumoniae [7] = assay: microbe, parasite or virus in culture; type: functional; details: ATCC 49619, 24 h
Description: Antibacterial activity against Streptococcus pneumoniae ATCC 49619 after 24 hrs by macrobroth dilution method

Escherichia coli [8] = assay: microbe, parasite or virus in culture; type: functional; details: ATCC 25922, 24 h
Description: Antibacterial activity against Escherichia coli ATCC 25922 after 24 hrs by macrobroth dilution method

Escherichia coli [9] = assay: microbe, parasite or virus in culture; type: functional; details: isolate CAN-ICU 61714, 24 h
Description: Antibacterial activity against Escherichia coli isolate CAN-ICU 61714 after 24 hrs by macrobroth dilution method

Escherichia coli [10] = assay: microbe, parasite or virus in culture; type: functional; details: isolate CAN-ICU 63074, 24 h
Description: Antibacterial activity against Escherichia coli isolate CAN-ICU 63074 after 24 hrs by macrobroth dilution method

Pseudomonas aeruginosa [11] = assay: microbe, parasite or virus in culture; type: functional; details: ATCC 27853, 24 h
Description: Antibacterial activity against Pseudomonas aeruginosa ATCC 27853 after 24 hrs by macrobroth dilution method

Pseudomonas aeruginosa [12] = assay: microbe, parasite or virus in culture; type: functional; details: isolate CAN-ICU 62308, 24 h
Description: Antibacterial activity against Pseudomonas aeruginosa isolate CAN-ICU 62308 after 24 hrs by macrobroth dilution method

[13] = tested on: Stenotrophomonas maltophilia; assay: microbe, parasite or virus in culture; type: functional; details: isolate CAN-ICU 62584, 24 h
Description: Antibacterial activity against Stenotrophomonas maltophilia isolate CAN-ICU 62584 after 24 hrs by macrobroth dilution method

Acinetobacter baumannii [14] = assay: microbe, parasite or virus in culture; type: functional; details: isolate CAN-ICU 63169, 24 h
Description: Antibacterial activity against Acinetobacter baumannii 63169 isolate CAN-ICU after 24 hrs by macrobroth dilution method

Klebsiella pneumoniae [15] = assay: microbe, parasite or virus in culture; type: functional; details: ATCC 13883, 24 h
Description: Antibacterial activity against Klebsiella pneumoniae ATCC 13883 after 24 hrs by macrobroth dilution method

Staphylococcus aureus [16] = assay: microbe, parasite or virus in culture; type: functional; details: ATCC 29213, 24 h; remark: listed apart in the source
Description: Antibacterial activity against Staphylococcus aureus ATCC 29213 after 24 hrs by macrobroth dilution method in the presence of bovine serum albumin

Staphylococcus aureus [17] = assay: microbe, parasite or virus in culture; type: functional; details: ATCC 33592, 24 h; remark: listed apart in the source
Description: Antibacterial activity against methicillin-resistant Staphylococcus aureus ATCC 33592 after 24 hrs by macrobroth dilution method in the presence of bovine serum albumin

[18] = tested on: Staphylococcus epidermidis; assay: microbe, parasite or virus in culture; type: functional; details: Staphylococcus epidermidis, 81388, 24 h; remark: listed apart in the source
Description: Antibacterial activity against methicillin-susceptible Staphylococcus epidermidis 81388 after 24 hrs by macrobroth dilution method in the presence of bovine serum albumin

[19] = tested on: Staphylococcus epidermidis; assay: microbe, parasite or virus in culture; type: functional, isolate CAN-ICU 61589; details: isolate CAN-ICU61589, 24 h
Description: Antibacterial activity against methicillin-resistant Staphylococcus epidermidis isolate CAN-ICU 61589 after 24 hrs by macrobroth dilution method in the presence of bovine serum albumin

Enterococcus faecalis [20] = assay: microbe, parasite or virus in culture; type: functional; details: ATCC 29212, 24 h; remark: listed apart in the source
Description: Antibacterial activity against Enterococcus faecalis ATCC 29212 after 24 hrs by macrobroth dilution method in the presence of bovine serum albumin

Enterococcus faecium [21] = assay: microbe, parasite or virus in culture; type: functional; details: ATCC 27270, 24 h; remark: listed apart in the source
Description: Antibacterial activity against Enterococcus faecium ATCC 27270 after 24 hrs by macrobroth dilution method in the presence of bovine serum albumin

Streptococcus pneumoniae [22] = assay: microbe, parasite or virus in culture; type: functional; details: ATCC 49619, 24 h; remark: listed apart in the source
Description: Antibacterial activity against Streptococcus pneumoniae ATCC 49619 after 24 hrs by macrobroth dilution method in the presence of bovine serum albumin

Escherichia coli [23] = assay: microbe, parasite or virus in culture; type: functional; details: ATCC 25922, 24 h; remark: listed apart in the source
Description: Antibacterial activity against Escherichia coli ATCC 25922 after 24 hrs by macrobroth dilution method in the presence of bovine serum albumin

Escherichia coli [24] = assay: microbe, parasite or virus in culture; type: functional; details: isolate CAN-ICU 61714, 24 h; remark: listed apart in the source
Description: Antibacterial activity against Escherichia coli isolate CAN-ICU 61714 after 24 hrs by macrobroth dilution method in the presence of bovine serum albumin

Escherichia coli [25] = assay: microbe, parasite or virus in culture; type: functional; details: isolate CAN-ICU 63074, 24 h; remark: listed apart in the source
Description: Antibacterial activity against Escherichia coli isolate CAN-ICU 63074 after 24 hrs by macrobroth dilution method in the presence of bovine serum albumin

Pseudomonas aeruginosa [26] = assay: microbe, parasite or virus in culture; type: functional; details: ATCC 27853, 24 h; remark: listed apart in the source
Description: Antibacterial activity against Pseudomonas aeruginosa ATCC 27853 after 24 hrs by macrobroth dilution method in the presence of bovine serum albumin

Pseudomonas aeruginosa [27] = assay: microbe, parasite or virus in culture; type: functional; details: isolate CAN-ICU 62308, 24 h; remark: listed apart in the source
Description: Antibacterial activity against Pseudomonas aeruginosa isolate CAN-ICU 62308 after 24 hrs by macrobroth dilution method in the presence of bovine serum albumin

[28] = tested on: Stenotrophomonas maltophilia; assay: microbe, parasite or virus in culture; type: functional; details: isolate CAN-ICU 62584, 24 h; remark: listed apart in the source
Description: Antibacterial activity against Stenotrophomonas maltophilia isolate CAN-ICU 62584 after 24 hrs by macrobroth dilution method in the presence of bovine serum albumin

Acinetobacter baumannii [29] = assay: microbe, parasite or virus in culture; type: functional; details: isolate CAN-ICU 63169, 24 h; remark: listed apart in the source
Description: Antibacterial activity against Acinetobacter baumannii isolate CAN-ICU 63169 after 24 hrs by macrobroth dilution method in the presence of bovine serum albumin

Klebsiella pneumoniae [30] = assay: microbe, parasite or virus in culture; type: functional; details: ATCC 13883, 24 h; remark: listed apart in the source
Description: Antibacterial activity against Klebsiella pneumoniae ATCC 13883 after 24 hrs by macrobroth dilution method in the presence of bovine serum albumin

[31] = Toxicity in human erythrocytes assessed as hemolysis at 100 ug/ml by spectrophotometry; details: at 100 µg/mL
Pseudomonas aeruginosa [32] = assay: Ratio of MIC90 of neomycin sulfate to MIC90 of compound against Pseudomonas aeruginosa ATCC 27853; type: functional
Pseudomonas aeruginosa [33] = assay: Ratio of MIC90 of neomycin sulfate to MIC90 of compound against Pseudomonas aeruginosa 62308; type: functional

Row | SMILES | MIC90 (Staphylococcus aureus [1]) | MIC90 (Staphylococcus aureus [2]) | MIC90 [3] | MIC90 [4] | MIC90 (Enterococcus faecalis [5]) | MIC90 (Enterococcus faecium [6]) | MIC90 (Streptococcus pneumoniae [7]) | MIC90 (Escherichia coli [8]) | MIC90 (Escherichia coli [9]) | MIC90 (Escherichia coli [10]) | MIC90 (Pseudomonas aeruginosa [11]) | MIC90 (Pseudomonas aeruginosa [12]) | MIC90 [13] | MIC90 (Acinetobacter baumannii [14]) | MIC90 (Klebsiella pneumoniae [15]) | MIC90 (Staphylococcus aureus [16]) | MIC90 (Staphylococcus aureus [17]) | MIC90 [18] | MIC90 [19] | MIC90 (Enterococcus faecalis [20]) | other results
1 | Cc1cc(OCc2cn(C[C@H]3O[C@@H](O[C@@H]4[C@@H](O)[C@H](N)C[C@H](N)[C@H]4O[C@H]4O[C@H](CN)[C@@H](O)[C@H](O)[C@H]4N)[C@H](O)[C@@H]3O[C@H]3O[C@@H](CN)[C@@H](O)[C@H](O)[C@H]3N)nn2)cc(C)c1Cl | 16 µg/mL (≈ 19.2 µM) | 256 µg/mL (≈ 307 µM) | 8 µg/mL (≈ 9.59 µM) | 8 µg/mL (≈ 9.59 µM) | 64 µg/mL (≈ 76.7 µM) | 128 µg/mL (≈ 153 µM) | 64 µg/mL (≈ 76.7 µM) | 16 µg/mL (≈ 19.2 µM) | 16 µg/mL (≈ 19.2 µM) | 128 µg/mL (≈ 153 µM) | 512 µg/mL (≈ 614 µM) | 256 µg/mL (≈ 307 µM) | > 512 µg/mL | > 512 µg/mL | 8 µg/mL (≈ 9.59 µM) | 32 µg/mL (≈ 38.4 µM) | 512 µg/mL (≈ 614 µM) | 8 µg/mL (≈ 9.59 µM) | 8 µg/mL (≈ 9.59 µM) | 128 µg/mL (≈ 153 µM) | MIC90 (Enterococcus faecium [21]): 64 µg/mL (≈ 76.7 µM); MIC90 (Streptococcus pneumoniae [22]): 128 µg/mL (≈ 153 µM); MIC90 (Escherichia coli [23]): 32 µg/mL (≈ 38.4 µM); MIC90 (Escherichia coli [24]): 16 µg/mL (≈ 19.2 µM); MIC90 (Escherichia coli [25]): 128 µg/mL (≈ 153 µM); MIC90 (Pseudomonas aeruginosa [26]): 512 µg/mL (≈ 614 µM); MIC90 (Pseudomonas aeruginosa [27]): 256 µg/mL (≈ 307 µM); MIC90 [28]: > 512 µg/mL; MIC90 (Acinetobacter baumannii [29]): > 512 µg/mL; MIC90 (Klebsiella pneumoniae [30]): 4 µg/mL (≈ 4.79 µM); hemolysis at 100 ug/ml [31]: 0.75%
2 | Cc1cc(OCCCCc2cn(C[C@H]3O[C@@H](O[C@@H]4[C@@H](O)[C@H](N)C[C@H](N)[C@H]4O[C@H]4O[C@H](CN)[C@@H](O)[C@H](O)[C@H]4N)[C@H](O)[C@@H]3O[C@H]3O[C@@H](CN)[C@@H](O)[C@H](O)[C@H]3N)nn2)cc(C)c1Cl | 16 µg/mL (≈ 18.3 µM) | 128 µg/mL (≈ 146 µM) | 8 µg/mL (≈ 9.13 µM) | 8 µg/mL (≈ 9.13 µM) | 128 µg/mL (≈ 146 µM) | 16 µg/mL (≈ 18.3 µM) | 64 µg/mL (≈ 73 µM) | 32 µg/mL (≈ 36.5 µM) | 16 µg/mL (≈ 18.3 µM) | 128 µg/mL (≈ 146 µM) | 512 µg/mL (≈ 584 µM) | 256 µg/mL (≈ 292 µM) | > 512 µg/mL | 512 µg/mL (≈ 584 µM) | 4 µg/mL (≈ 4.56 µM) | 32 µg/mL (≈ 36.5 µM) | 256 µg/mL (≈ 292 µM) | 8 µg/mL (≈ 9.13 µM) | 8 µg/mL (≈ 9.13 µM) | 128 µg/mL (≈ 146 µM) | MIC90 (Enterococcus faecium [21]): 32 µg/mL (≈ 36.5 µM); MIC90 (Streptococcus pneumoniae [22]): 256 µg/mL (≈ 292 µM); MIC90 (Escherichia coli [23]): 32 µg/mL (≈ 36.5 µM); MIC90 (Escherichia coli [24]): 16 µg/mL (≈ 18.3 µM); MIC90 (Escherichia coli [25]): 128 µg/mL (≈ 146 µM); MIC90 (Pseudomonas aeruginosa [26]): > 512 µg/mL; MIC90 (Pseudomonas aeruginosa [27]): 256 µg/mL (≈ 292 µM); MIC90 [28]: > 512 µg/mL; MIC90 (Acinetobacter baumannii [29]): 512 µg/mL (≈ 584 µM); MIC90 (Klebsiella pneumoniae [30]): 4 µg/mL (≈ 4.56 µM); hemolysis at 100 ug/ml [31]: 0.75%
3 | CC(C)(C)CC(C)(C)c1ccc(OCc2cn(C[C@H]3O[C@@H](O[C@@H]4[C@@H](O)[C@H](N)C[C@H](N)[C@H]4O[C@H]4O[C@H](CN)[C@@H](O)[C@H](O)[C@H]4N)[C@H](O)[C@@H]3O[C@H]3O[C@@H](CN)[C@@H](O)[C@H](O)[C@H]3N)nn2)c(Cc2ccc(Cl)cc2Cl)c1 | 8 µg/mL (≈ 7.67 µM) | 8 µg/mL (≈ 7.67 µM) | 4 µg/mL (≈ 3.83 µM) | 1 µg/mL (≈ 0.959 µM) | 8 µg/mL (≈ 7.67 µM) | 8 µg/mL (≈ 7.67 µM) | 64 µg/mL (≈ 61.4 µM) | 16 µg/mL (≈ 15.3 µM) | 64 µg/mL (≈ 61.4 µM) | 64 µg/mL (≈ 61.4 µM) | 128 µg/mL (≈ 123 µM) | 64 µg/mL (≈ 61.4 µM) | 512 µg/mL (≈ 491 µM) | 64 µg/mL (≈ 61.4 µM) | 64 µg/mL (≈ 61.4 µM) | 8 µg/mL (≈ 7.67 µM) | 16 µg/mL (≈ 15.3 µM) | 2 µg/mL (≈ 1.92 µM) | 4 µg/mL (≈ 3.83 µM) | 16 µg/mL (≈ 15.3 µM) | MIC90 (Enterococcus faecium [21]): 8 µg/mL (≈ 7.67 µM); MIC90 (Streptococcus pneumoniae [22]): 128 µg/mL (≈ 123 µM); MIC90 (Escherichia coli [23]): 64 µg/mL (≈ 61.4 µM); MIC90 (Escherichia coli [24]): 128 µg/mL (≈ 123 µM); MIC90 (Escherichia coli [25]): 256 µg/mL (≈ 245 µM); MIC90 (Pseudomonas aeruginosa [26]): 512 µg/mL (≈ 491 µM); MIC90 (Pseudomonas aeruginosa [27]): 128 µg/mL (≈ 123 µM); MIC90 [28]: > 512 µg/mL; MIC90 (Acinetobacter baumannii [29]): 256 µg/mL (≈ 245 µM); MIC90 (Klebsiella pneumoniae [30]): 64 µg/mL (≈ 61.4 µM); hemolysis at 100 ug/ml [31]: 27.5%; Ratio (Pseudomonas aeruginosa [32]): 4; Ratio (Pseudomonas aeruginosa [33]): 4
4 | CC(C)(C)CC(C)(C)c1ccc(OCCCCc2cn(C[C@H]3O[C@@H](O[C@@H]4[C@@H](O)[C@H](N)C[C@H](N)[C@H]4O[C@H]4O[C@H](CN)[C@@H](O)[C@H](O)[C@H]4N)[C@H](O)[C@@H]3O[C@H]3O[C@@H](CN)[C@@H](O)[C@H](O)[C@H]3N)nn2)c(Cc2ccc(Cl)cc2Cl)c1 | 16 µg/mL (≈ 14.7 µM) | 16 µg/mL (≈ 14.7 µM) | 8 µg/mL (≈ 7.37 µM) | 8 µg/mL (≈ 7.37 µM) | 64 µg/mL (≈ 59 µM) | 8 µg/mL (≈ 7.37 µM) | 64 µg/mL (≈ 59 µM) | 64 µg/mL (≈ 59 µM) | 64 µg/mL (≈ 59 µM) | 128 µg/mL (≈ 118 µM) | 128 µg/mL (≈ 118 µM) | 64 µg/mL (≈ 59 µM) | 512 µg/mL (≈ 472 µM) | 256 µg/mL (≈ 236 µM) | 32 µg/mL (≈ 29.5 µM) | 16 µg/mL (≈ 14.7 µM) | 32 µg/mL (≈ 29.5 µM) | 4 µg/mL (≈ 3.69 µM) | 4 µg/mL (≈ 3.69 µM) | 64 µg/mL (≈ 59 µM) | MIC90 (Enterococcus faecium [21]): 16 µg/mL (≈ 14.7 µM); MIC90 (Streptococcus pneumoniae [22]): 64 µg/mL (≈ 59 µM); MIC90 (Escherichia coli [23]): 64 µg/mL (≈ 59 µM); MIC90 (Escherichia coli [24]): 128 µg/mL (≈ 118 µM); MIC90 (Escherichia coli [25]): 256 µg/mL (≈ 236 µM); MIC90 (Pseudomonas aeruginosa [26]): 512 µg/mL (≈ 472 µM); MIC90 (Pseudomonas aeruginosa [27]): 256 µg/mL (≈ 236 µM); MIC90 [28]: > 512 µg/mL; MIC90 (Acinetobacter baumannii [29]): > 512 µg/mL; MIC90 (Klebsiella pneumoniae [30]): 32 µg/mL (≈ 29.5 µM); hemolysis at 100 ug/ml [31]: 22.5%; Ratio (Pseudomonas aeruginosa [32]): 4; Ratio (Pseudomonas aeruginosa [33]): 4
